One test addresses T1, Mer (Homo sapiens, UniProt Q12866).
T1 construct: host or cells: 293A cells (Thermo Fisher #R70507)
T1 sequence (Q12866 21-999): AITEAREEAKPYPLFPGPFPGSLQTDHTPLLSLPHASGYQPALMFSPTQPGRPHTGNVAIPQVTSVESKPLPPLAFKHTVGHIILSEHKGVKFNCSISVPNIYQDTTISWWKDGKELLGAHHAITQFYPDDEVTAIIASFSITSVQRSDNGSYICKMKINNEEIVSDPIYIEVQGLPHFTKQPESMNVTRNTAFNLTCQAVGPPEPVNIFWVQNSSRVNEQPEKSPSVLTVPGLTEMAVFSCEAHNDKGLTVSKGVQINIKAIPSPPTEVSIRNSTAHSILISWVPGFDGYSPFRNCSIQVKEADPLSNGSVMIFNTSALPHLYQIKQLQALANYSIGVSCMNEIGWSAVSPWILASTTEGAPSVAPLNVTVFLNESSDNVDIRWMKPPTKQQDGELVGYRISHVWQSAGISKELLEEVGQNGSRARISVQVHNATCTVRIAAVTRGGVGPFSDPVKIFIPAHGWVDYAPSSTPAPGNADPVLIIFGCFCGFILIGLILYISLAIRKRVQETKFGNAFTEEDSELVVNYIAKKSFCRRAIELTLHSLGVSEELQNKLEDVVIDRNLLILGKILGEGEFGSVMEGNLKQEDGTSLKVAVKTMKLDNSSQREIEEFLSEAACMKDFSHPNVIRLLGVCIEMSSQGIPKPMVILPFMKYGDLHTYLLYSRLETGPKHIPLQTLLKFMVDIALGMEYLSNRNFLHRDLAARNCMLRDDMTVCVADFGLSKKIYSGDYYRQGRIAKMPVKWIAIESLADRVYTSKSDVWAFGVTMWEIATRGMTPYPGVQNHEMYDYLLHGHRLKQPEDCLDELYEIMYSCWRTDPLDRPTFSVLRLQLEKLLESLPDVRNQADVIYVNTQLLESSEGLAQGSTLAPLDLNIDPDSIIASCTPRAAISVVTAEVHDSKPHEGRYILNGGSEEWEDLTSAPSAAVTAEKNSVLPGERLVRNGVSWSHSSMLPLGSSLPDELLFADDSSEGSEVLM
The test is described as follows: Mer autophosphorylation ELISA in transient transfected 293A cells. It counts as cell-based. To be noted: Table 3 Cellular Activities; MERTK-transfected 293A cells, phospho-Mer ELISA. The method in brief: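 Phospho-Mer quantified by ELISA in lysates of transiently MERTK-transfected 293A cells after 1 h exposure to an 8-point compound series, serum-free, 0.3% DMSO. Activity normalized between DMSO-treated (100%) and reference inhibitor-treated (0%) lysates; IC50 via 4-parameter nonlinear regression.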

For the next test, the target named is KDR (Homo sapiens, UniProt P35968). The test is described as follows: KDR autophosphorylation ELISA in HUVEC cells. It counts as cell-based. Further details: endogenous in cells; host or cells: HUVEC (Lonza #C2519A). As to conditions: Table 3 Cellular Activities, VEGF165-stimulated, phospho-KDR ELISA. The method in brief: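 Inhibition of VEGF165-induced KDR phosphorylation was determined in serum-starved HUVEC after 1 h compound pretreatment and 5 min stimulation with 100 ng/mL VEGF165. Lysate phospho-KDR was measured by ELISA; IC50 values came from a 4-parameter logistic fit of 8-point curves.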
Sequence of KDR (P35968 20-1356): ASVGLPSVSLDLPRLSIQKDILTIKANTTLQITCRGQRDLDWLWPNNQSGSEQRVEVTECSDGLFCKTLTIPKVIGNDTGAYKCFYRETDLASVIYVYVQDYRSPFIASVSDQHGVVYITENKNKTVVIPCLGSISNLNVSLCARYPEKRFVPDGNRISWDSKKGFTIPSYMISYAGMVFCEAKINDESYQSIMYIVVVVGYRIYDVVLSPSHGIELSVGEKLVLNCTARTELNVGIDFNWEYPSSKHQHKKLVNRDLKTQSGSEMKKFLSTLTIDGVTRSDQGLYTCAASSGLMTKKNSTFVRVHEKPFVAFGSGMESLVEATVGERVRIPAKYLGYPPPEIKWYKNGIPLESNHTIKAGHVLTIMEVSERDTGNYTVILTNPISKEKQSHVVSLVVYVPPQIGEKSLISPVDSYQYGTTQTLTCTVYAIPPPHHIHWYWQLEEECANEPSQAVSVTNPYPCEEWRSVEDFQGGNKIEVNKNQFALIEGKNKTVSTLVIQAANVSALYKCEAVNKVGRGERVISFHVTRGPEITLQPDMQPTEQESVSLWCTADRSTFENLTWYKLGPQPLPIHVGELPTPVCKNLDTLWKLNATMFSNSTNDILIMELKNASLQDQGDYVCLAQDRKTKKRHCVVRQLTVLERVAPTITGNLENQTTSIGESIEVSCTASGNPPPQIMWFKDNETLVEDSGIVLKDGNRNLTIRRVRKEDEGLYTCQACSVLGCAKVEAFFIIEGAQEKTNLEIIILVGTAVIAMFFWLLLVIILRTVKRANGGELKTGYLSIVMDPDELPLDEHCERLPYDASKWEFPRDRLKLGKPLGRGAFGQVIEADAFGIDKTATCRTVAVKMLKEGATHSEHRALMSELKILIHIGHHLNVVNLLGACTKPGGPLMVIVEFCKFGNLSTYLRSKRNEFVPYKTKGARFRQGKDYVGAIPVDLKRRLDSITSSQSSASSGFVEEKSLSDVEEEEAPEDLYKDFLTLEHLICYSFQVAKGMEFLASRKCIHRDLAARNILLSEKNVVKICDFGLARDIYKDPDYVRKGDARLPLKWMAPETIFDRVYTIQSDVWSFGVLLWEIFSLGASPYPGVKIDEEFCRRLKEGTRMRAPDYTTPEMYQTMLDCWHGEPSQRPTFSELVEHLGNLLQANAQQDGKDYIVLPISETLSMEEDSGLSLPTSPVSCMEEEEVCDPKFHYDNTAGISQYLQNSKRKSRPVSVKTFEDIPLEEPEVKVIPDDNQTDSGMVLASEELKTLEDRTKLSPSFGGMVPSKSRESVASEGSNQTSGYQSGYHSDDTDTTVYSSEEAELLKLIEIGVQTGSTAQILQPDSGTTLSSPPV
On the technique in general: ELISA stands for enzyme-linked immunosorbent assay.

The IC50 is the concentration that gives 50% inhibition.

Bounds are passed on as bounds.

In the case of `COc1cnc2c(Oc3ccc(NC(=O)c4cn(CCF)c(C)c(-c5cc(C)cs5)c4=O)cc3F)ccnc2c1` [Compound 328, 1-(2-Fluoroethyl)-N-[3-fluoro-4-[(7-methoxy-1,5-naphthyridin-4-yl)oxy]phenyl]-6-methyl-5-(4-methylthiophen-2-yl)-4-oxopyridine-3-carboxamide], the IC50 was at most 100 nM against Mer and 300 to 1000 nM at KDR.

For `COc1cc2nccc(Oc3ccc(NC(=O)c4ccc(C)n(-c5ccnc(F)c5)c4=O)cc3F)c2nc1OC` [Compound 233, N-[4-[(6,7-Dimethoxy-1,5-naphthyridin-4-yl)oxy]-3-fluorophenyl]-1-(2-fluoropyridin-4-yl)-6-methyl-2-oxopyridine-3-carboxamide], the IC50 on Mer and at KDR was at most 100 nM each time.

With `CCOc1ccn(-c2ccc(F)cn2)c(=O)c1C(=O)Nc1ccc(Oc2ccnc3cc(OC)c(OC)nc23)c(F)c1` [Compound 243, N-[4-[(6,7-dimethoxy-1,5-naphthyridin-4-yl)oxy]-3-fluorophenyl]-4-ethoxy-1-(5-fluoropyridin-2-yl)-2-oxopyridine-3-carboxamide], the IC50 is at most 100 nM against Mer and 100 to 300 nM at KDR.

On to `COc1cc2nccc(Oc3ccc(NC(=O)c4cc(C(C)=O)c(C)n(-c5ccco5)c4=O)cc3F)c2nc1OC` [Compound 236, 5-Acetyl-N-[4-[(6,7-dimethoxy-1,5-naphthyridin-4-yl)oxy]-3-fluorophenyl]-1-(furan-2-yl)-6-methyl-2-oxopyridine-3-carboxamide], for which the IC50 was at most 100 nM against Mer and 300 to 1000 nM against KDR.

In the case of `COc1cc2nccc(Oc3ccc(NC(=O)c4nccn(-c5ccc(F)cn5)c4=O)cc3F)c2nc1OC` [Compound 246, N-[4-[(6,7Dimethoxy-1,5-naphthyridin-4-yl)oxy]-3-fluorophenyl]-4-(5-fluoropyridin-2-yl)-3-oxopyrazine-2-carboxamide], the IC50 is at most 100 nM on Mer and 100 to 300 nM against KDR.

For the compound `COc1cnc2c(Oc3ccc(NC(=O)c4ccc(C)n(-c5ncc(F)cc5C)c4=O)cc3F)ccnc2c1` [Compound 52, N-[3-Fluoro-4-[(7-methoxy-1,5-naphthyridin-4-yl)oxy]phenyl]-1-(5-fluoro-3-methylpyridin-2-yl)-6-methyl-2-oxopyridine-3-carboxamide], the IC50 on Mer and at KDR was at most 100 nM throughout.

`COc1ccc2nccc(Oc3ccc(NC(=O)c4ccc(C)n(-c5ccc(F)cn5)c4=O)cc3F)c2n1` [Compound 47, N-[3-Fluoro-4-[(6-methoxy-1,5-naphthyridin-4-yl)oxy]phenyl]-1-(5-fluoropyridin-2-yl)-6-methyl-2-oxopyridine-3-carboxamide]: the IC50 against Mer and against KDR was at most 100 nM each time.

Turning to `COc1cc2nccc(Oc3ccc(NC(=O)c4c5n(cc(-c6ccco6)c4=O)CCOC5)cc3)c2nc1OC` [Compound 298, N-[4-[(6,7-Dimethoxy-1,5-naphthyridin-4-yl)oxy]phenyl]-7-(furan-2-yl)-8-oxo-3,4-dihydro-1H-pyrido[2,1-c][1,4]oxazine-9-carboxamide], the IC50 at Mer is at most 100 nM; against KDR, 300 to 1000 nM.

`COc1cc2nccc(Oc3ccc(NC(=O)c4c5n(cc(-c6cccs6)c4=O)CCOC5)cc3)c2nc1OC` [Compound 299, N-[4-[(6,7-Dimethoxy-1,5-naphthyridin-4-yl)oxy]phenyl]-8-oxo-7-thiophen-2-yl-3,4-dihydro-1H-pyrido[2,1-c][1,4]oxazine-9-carboxamide]: the IC50 against Mer is at most 100 nM; at KDR, 300 to 1000 nM.

Consider `COc1cc2nccc(Oc3ccc(NC(=O)c4ccc(C)n(-c5ccnc(O)c5)c4=O)cc3F)c2nc1OC` [Compound 232, N-[4-[(6,7-Dimethoxy-1,5-naphthyridin-4-yl)oxy]-3-fluorophenyl]-1-(2-hydroxypyridin-4-yl)-6-methyl-2-oxopyridine-3-carboxamide], for which the IC50 is at most 100 nM against Mer and 300 to 1000 nM against KDR.

In the case of `COc1cc2nccc(Oc3ccc(NC(=O)c4cc(C#N)c(C)n(-c5ccc(F)cn5)c4=O)cc3F)c2nc1OC` [Compound 56, 5-Cyano-N-[4-[(6,7-dimethoxy-1,5-naphthyridin-4-yl)oxy]-3-fluorophenyl]-1-(5-fluoropyridin-2-yl)-6-methyl-2-oxopyridine-3-carboxamide], the figures for the IC50 against Mer and against KDR were at most 100 nM and 300 to 1000 nM, respectively.

For `COc1cc2nccc(Oc3ccc(NC(=O)c4c(C)ncc(-c5ccc(F)cn5)c4O)cc3F)c2nc1OC` [Compound 68, N-[4-[(6,7-Dimethoxy-1,5-naphthyridin-4-yl)oxy]-3-fluorophenyl]-5-(5-fluoropyridin-2-yl)-4-hydroxy-2-methylpyridine-3-carboxamide], the half-inhibitory concentration (IC50) against Mer and at KDR was at most 100 nM each time.

As for `COc1cc2nccc(Oc3ccc(NC(=O)c4c5n(cc(-c6ccc(C)s6)c4=O)CCOC5)cc3F)c2nc1OC` [Compound 304, N-[4-[(6,7-Dimethoxy-1,5-naphthyridin-4-yl)oxy]-3-fluorophenyl]-7-(5-methylthiophen-2-yl)-8-oxo-3,4-dihydro-1H-pyrido[2,1-c][1,4]oxazine-9-carboxamide], the results for the IC50 against Mer and against KDR were at most 100 nM and 300 to 1000 nM, respectively.

`COCCOc1cc2nccc(Oc3ccc(NC(=O)c4c(C)n(C)c(C)c(-c5cc6ccccc6o5)c4=O)cc3F)c2nc1OC` [Compound 263, 5-(1-Benzofuran-2-yl)-N-[3-fluoro-4-[[6-methoxy-7-(2-methoxyethoxy)-1,5-naphthyridin-4-yl]oxy]phenyl]-1,2,6-trimethyl-4-oxopyridine-3-carboxamide]: the values for the IC50 on Mer and against KDR were 100 to 300 nM and 300 to 1000 nM, respectively.

`COc1cc2nccc(Oc3ccc(NC(=O)c4cc(C(C)=O)c(C)n(-c5ccc(F)cn5)c4=O)cc3F)c2nc1OC` [Compound 59, 5-Acetyl-N-[4-[(6,7-dimethoxy-1,5-naphthyridin-4-yl)oxy]-3-fluorophenyl]-1-(5-fluoropyridin-2-yl)-6-methyl-2-oxopyridine-3-carboxamide]: the IC50 against Mer was at most 100 nM; against KDR it was 100 to 300 nM.

Regarding `COCCOc1cc2nccc(Oc3ccc(NC(=O)c4c(C)n(C)c(C)c(-c5ccco5)c4=O)cc3F)c2nc1OC` [Compound 254, N-[3-Fluoro-4-[[6-methoxy-7-(2-methoxyethoxy)-1,5-naphthyridin-4-yl]oxy]phenyl]-5-(furan-2-yl)-1,2,6-trimethyl-4-oxopyridine-3-carboxamide], the IC50 on Mer and at KDR was at most 100 nM each time.

As for `COc1cc2nccc(Oc3ccc(NC(=O)c4ccc(C)n(-c5ncc(F)cc5C)c4=O)cc3F)c2nc1OC` [Compound 51, N-[4-[(6,7-Dimethoxy-1,5-naphthyridin-4-yl)oxy]-3-fluorophenyl]-1-(5-fluoro-3-methylpyridin-2-yl)-6-methyl-2-oxopyridine-3-carboxamide], the IC50 on Mer and against KDR was at most 100 nM throughout.

Take `COc1cc2nccc(Oc3ccc(NC(=O)c4cccn(-c5ccc(F)cn5)c4=O)cc3F)c2nc1OC` [Compound 42, N-[4-[(6,7-Dimethoxy-1,5-naphthyridin-4-yl)oxy]-3-fluorophenyl]-1-(5-fluoropyridin-2-yl)-2-oxopyridine-3-carboxamide]: the half-inhibitory concentration (IC50) against Mer and against KDR was at most 100 nM throughout.

`COc1cc2nccc(Oc3ccc(NC(=O)c4cn(C)c(C)c(-c5ccc(F)cn5)c4=O)cc3)c2nc1OC` [Compound 86, N-[4-[(6,7-Dimethoxy-1,5-naphthyridin-4-yl)oxy]phenyl]-5-(5-fluoropyridin-2-yl)-1,6-dimethyl-4-oxopyridine-3-carboxamide]: the IC50 against Mer was at most 100 nM; against KDR, 300 to 1000 nM.

`COc1cc2nccc(Oc3ccc(NC(=O)c4c5n(cc(-c6cc(C)cs6)c4=O)CCOC5)cc3F)c2nc1OC` [Compound 302, N-[4-[(6,7-Dimethoxy-1,5-naphthyridin-4-yl)oxy]-3-fluorophenyl]-7-(4-methylthiophen-2-yl)-8-oxo-3,4-dihydro-1H-pyrido[2,1-c][1,4]oxazine-9-carboxamide]: the 50% inhibitory concentration (IC50) against Mer and at KDR was at most 100 nM each time.

(Values after patent US20230151003A1, “COMPOUNDS AND METHODS OF USE” (Exelixis, Inc., priority 2020, published 2023).)
